In patent US20190388421A1, “NOVEL COMPOUNDS AND PHARMACEUTICAL COMPOSITIONS THEREOF FOR THE TREATMENT OF FIBROSIS” (Galapagos NV, priority 2016, published 2019) one finds EC50 and IC50 data, which are given here for 15 molecules.

Assay [1] addresses T1, human GPCR sphingosine 1-phosphate receptor 2 (S1PR2) (Homo sapiens, UniProt O95136).
T1 construct: host or cells: CHO
The experiment in a line: S1P2 antagonist assay (Ca2+ flux, S1P at EC80). The note with it: CHO-S1PR2 cells, highest concentration 20 μM. The class given is cell-based. Summed up:
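CHO cells stably overexpressing human S1PR2, serum-starved 1 h and loaded with Fluo8 dye, were read for 3 min after compound addition, then stimulated with S1P at EC80 after 15 min at 37 °C. Top concentration 20 μM in a 10-point 1/3 series; Ca2+ fluorescence ratio normalized to vehicle and S1P EC80, giving EC50.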
A general note: A change in cytosolic calcium serves as a functional read-out for many receptors and channels.

The target of assay [2] is T2, human GPCR sphingosine 1-phosphate receptor 1 (S1PR1) (Homo sapiens, UniProt P21453).
T2 construct: host or cells: CHO
The experiment in a line: S1PR1 selectivity assay (Ca2+ flux, antagonist). It is filed as cell-based. To be noted: S1P1 antagonist EC50, CHO cells overexpressing human S1PR1 and Gq protein. In short, it runs like this: (§1)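 CHO cells stably overexpressing human S1PR1 or S1PR5 with Gq were preincubated with compound 15 min at 37 °C, then stimulated with S1P at EC80 (S1PR1) or an S1PR5-specific agonist (S1PR5). Ca2+ fluorescence was read for 3 min; 10-point 1/3 dilutions from 20 μM final, normalized to vehicle and EC80 trigger, gave EC50.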

Assay [3] deals with T3, human GPCR sphingosine 1-phosphate receptor 5 (S1PR5) (Homo sapiens, UniProt Q9H228).
T3 construct: host or cells: CHO
The experiment in a line: S1PR5 selectivity assay (Ca2+ flux, antagonist, S1PR5 specific agonist trigger). It is filed as cell-based. To be noted: S1P5 antagonist EC50, CHO cells overexpressing human S1PR5 and Gq protein. In short, it runs like this: as §1

In a further assay the target is T4, S1PR2 (Homo sapiens, UniProt O95136).
T4 construct: expressed in transfected cells
The experiment in a line: GTP-γS binding assay ([35S]GTPγS, S1P at EC80, S1PR2 membranes). It is filed as biochemical. The note with it: membranes from stable cell line over expressing S1PR2, read-out: S1PR2 EC. Summed up:
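Compounds tested against S1P at its EC80 on membranes (2.5 μg/well) from a stable S1PR2-overexpressing line, pre-incubated with 1 μM GDP 15 min at 4 °C. Buffer: 20 mM Tris pH 7.5, 10 mM MgCl2, 100 mM NaCl, 0.1% fatty-acid-free BSA, 50 ug/ml saponin. Incubated 4 h at room temperature; [35S]GTPγS binding read by WGA SPA beads.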
In general terms: GTPγS is a poorly hydrolysed GTP analogue; its binding reports G protein activation.

The test system of assay [4] is HFL-1 cells. The experiment in a line: IL8 assay (S1P induced IL-8 production). To be noted: Homo sapiens, HFL1; S1P (1 μM) induced IL-8, HFL-1 cells, without HSA. The class given is cell-based. As to the method:
(§2) S1P is able to induce cytokines such as IL-8 in a process that is S1PR2 dependent (O'Sullivan et al, 2014; Bruennert et al, 2015). This assay is designed to test inhibitory activity of compounds on S1P induced IL-8 on HFL-1 cells, a human fetal lung fibroblast cell line.
Human Fetal Lung cells (HFL-1) are seeded in 96 well plates in growth medium (F12K+10% heat inactivated FBS+1% Pen/strep). After overnight incubation at 37° C., 5% CO2 cells are refreshed with starvation medium without HSA (F12K+1% FBS+1% Pen/strep). On day three, compounds are added (10 point serial dilution, 30 μM highest concentration, ⅓ dilution, 0.3% DMSO final) and plates are incubated for one hour at 37° C., 5% CO2. Subsequently S1P at 1 μM final concentration is added and plates are incubated for 16 to 24 hours at 37° C., 5% CO2 after which the supernatant was collected. IL-8 levels in the supernatant are determined with the IL-8 ELISA of R&D systems.

The test system of assay [5] is HFL-1 cells. Put plainly: IL8 assay in the presence of Human Serum Albumin. It is filed as cell-based. The note with it: HFL1, S1P (5 μM) induced IL-8, HFL-1 cells, with 2% HSA, read-out: HSA IL8 EC50. As to the method:
as §2
To evaluate the influence of plasma protein binding of Sip as well as compound, the S1P induced IL-8 levels were evaluated in presence of 2% Human Serum Albumin (HSA, equivalent to 40% human serum). By adding 2% HSA, which affects both the activity of the compounds as well as the S1P potency, the physiological condition are reproduced and the shift in potency expected under in vivo serum conditions can be measured.
Human Fetal Lung cells (HFL-1) are seeded in 96 well plates in growth medium (F12K+10% heat inactivated FBS+1% Pen/strep). After overnight incubation at 37° C., 5% CO2 cells are refreshed with starvation medium with HSA (F12K+1% FBS+1% Pen/strep+1.95% HSA). On day three, compounds are added (10 point serial dilution, 30 μM highest concentration, 1/3 dilution, 0.3% DMSO final) and plates are incubated for 1 h at 37° C., 5% CO2. Subsequently S1P at 5 μM final concentration is added and plates are incubated for 16 to 24 h at 37° C., 5% CO2 after which the supernatant was collected. IL-8 levels in the supernatant are determined with the IL-8 ELISA of R&D systems.

T3 sequence (Q9H228 whole entry): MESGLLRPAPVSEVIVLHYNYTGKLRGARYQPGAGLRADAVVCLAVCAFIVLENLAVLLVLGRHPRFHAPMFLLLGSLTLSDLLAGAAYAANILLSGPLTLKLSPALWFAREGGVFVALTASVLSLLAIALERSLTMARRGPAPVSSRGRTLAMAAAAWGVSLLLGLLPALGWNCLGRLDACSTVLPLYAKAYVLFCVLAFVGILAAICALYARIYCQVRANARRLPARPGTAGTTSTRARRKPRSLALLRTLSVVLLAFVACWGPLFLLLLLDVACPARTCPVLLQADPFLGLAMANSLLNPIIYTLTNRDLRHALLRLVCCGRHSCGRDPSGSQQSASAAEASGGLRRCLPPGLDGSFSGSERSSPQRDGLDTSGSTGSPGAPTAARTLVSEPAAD
T2 sequence (P21453 whole entry): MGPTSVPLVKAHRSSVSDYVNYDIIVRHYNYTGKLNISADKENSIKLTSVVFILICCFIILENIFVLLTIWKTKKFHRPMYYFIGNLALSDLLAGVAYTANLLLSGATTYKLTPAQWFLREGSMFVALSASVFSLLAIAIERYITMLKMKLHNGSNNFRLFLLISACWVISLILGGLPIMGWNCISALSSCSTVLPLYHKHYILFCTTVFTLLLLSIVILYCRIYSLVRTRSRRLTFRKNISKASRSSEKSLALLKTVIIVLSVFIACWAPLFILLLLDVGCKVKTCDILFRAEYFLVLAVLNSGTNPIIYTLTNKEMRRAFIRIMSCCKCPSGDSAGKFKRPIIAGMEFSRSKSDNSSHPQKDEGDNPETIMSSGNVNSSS
T4 sequence (O95136 whole entry): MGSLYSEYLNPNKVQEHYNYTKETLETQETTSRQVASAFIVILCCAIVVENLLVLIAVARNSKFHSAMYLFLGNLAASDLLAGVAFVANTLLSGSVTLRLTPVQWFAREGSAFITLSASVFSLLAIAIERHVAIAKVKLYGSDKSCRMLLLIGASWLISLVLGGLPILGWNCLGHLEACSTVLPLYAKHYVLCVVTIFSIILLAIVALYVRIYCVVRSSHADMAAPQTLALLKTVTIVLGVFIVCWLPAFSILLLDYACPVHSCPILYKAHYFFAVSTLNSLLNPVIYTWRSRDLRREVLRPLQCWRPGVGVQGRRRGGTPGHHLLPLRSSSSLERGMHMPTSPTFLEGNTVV
T1 sequence (O95136 whole entry): as above

In the case of `CCOc1cc(NC(=O)NCc2cc(C)c(-c3cn(C)nc3C(F)(F)F)nn2)cc(C(F)(F)F)n1` [Compound 1, 1-(2-Ethoxy-6-trifluoromethyl-pyridin-4-yl)-3-[5-methyl-6-(1-methyl-3-trifluoromethyl-1H-pyrazol-4-yl)-pyridazin-3-ylmethyl]-urea], the EC50 in assay [1] was 9.5 nM; in assay [2] it was 5970 nM; in assay [3] it was 6610 nM; on S1PR2, 33.2 nM; with HFL-1 cells [4] it was 2.2 nM. In the assay with HFL-1 cells [5], the IC50 worked out at 61.5 nM.
Turning to `Cc1cc(CNC(=O)Nc2cc(Cl)nc(OCCF)c2)nnc1-c1cn(C)nc1C(F)(F)F` [Compound 16, 1-[2-chloro-6-(2-fluoroethoxy)-4-pyridyl]-3-[[5-methyl-6-[1-methyl-3-(trifluoromethyl)pyrazol-4-yl]pyridazin-3-yl]methyl]urea], the figures for the EC50 (in assay [1]; at S1PR2; in the assay with HFL-1 cells [4]) were 10.8 nM, 62.9 nM and 4.6 nM, respectively. Further, the IC50 in the assay on HFL-1 cells [5] stood at 74.9 nM.
In the same order, the values of `Cc1cc(CNC(=O)Nc2cc(Cl)nc(Cl)c2)nnc1-c1cn(C)nc1C(F)(F)F` [Compound 21, 1-(2,6-dichloro-4-pyridyl)-3-[[5-methyl-6-[1-methyl-3-(trifluoromethyl)pyrazol-4-yl]pyridazin-3-yl]methyl]urea] are 17.3 nM, 136 nM, 11.3 nM and 393 nM.
As for `Cc1cc(CNC(=O)Nc2cc(OCC3CC(F)(F)C3)nc(C(F)(F)F)c2)nnc1-c1cn(C)nc1C(F)(F)F` [Compound 42, 1-[2-[(3,3-difluorocyclo-butyl)methoxy]-6-(trifluoromethyl)-4-pyridyl]-3-[[5-methyl-6-[1-methyl-3-(trifluoromethyl)pyrazol-4-yl]pyridazin-3-yl]methyl]urea], the results for the EC50 (in assay [1]; at S1PR2; in the assay with HFL-1 cells [4]) were 292 nM, 604 nM and 50.9 nM, respectively. In addition, the IC50 in the assay with HFL-1 cells [5] amounted to 1240 nM.
For `CCOc1cc(NC(=O)NCc2cc(C)c(-c3cn(CC(C)O)nc3C(F)(F)F)nn2)cc(C(F)(F)F)n1` (stereo not drawn) [Compound 56, 1-[2-ethoxy-6-(trifluoromethyl)-4-pyridyl]-3-[[6-[1-(2-hydroxypropyl)-3-(trifluoromethyl)pyrazol-4-yl]5-methyl-pyridazin-3-yl]methyl]urea], the EC50 amounted to 11.2 nM in assay [1], 129 nM on S1PR2 and 4.6 nM in the assay on HFL-1 cells [4]. In addition, the IC50 in the assay on HFL-1 cells [5] turned out to be 98.5 nM.
With `CCOc1cc(NC(=O)NCc2nnc(-c3cn(C)nc3C(F)(F)F)c(C)c2C)cc(C(F)(F)F)n1` [Compound 66, 1-[[4,5-dimethyl-6-[1-methyl-3-(trifluoromethyl)pyrazol-4-yl]pyridazin-3-yl]methyl]-3-[2-ethoxy-6-(trifluoromethyl)-4-pyridyl]urea], the results for the EC50 (in assay [1]; in the assay on HFL-1 cells [4]) were 4250 nM and 996 nM, respectively. Besides, in the assay on HFL-1 cells [5], the IC50 amounted to 29900 nM.
With `Cc1cc(CNC(=O)Nc2cc(OCC(=O)N(C)C)nc(C(F)(F)F)c2)nnc1-c1cn(C)nc1C(F)(F)F` [Compound 67, N,N-dimethyl-2-[[4-[[5-methyl-6-[1-methyl-3-(trifluoromethyl)pyrazol-4-yl]pyridazin-3-yl]methyl-carbamoyla-mino]-6-(trifluoromethyl)-2-pyridyl]oxy]acetamide], the EC50 at S1PR2 was 28700 nM; in the assay on HFL-1 cells [4], 2180 nM. Further, in the assay with HFL-1 cells [5], the IC50 was determined as 9950 nM.
On to `CCOc1cc(NC(=O)NCc2cc(C)c(-c3cn(C)nc3C)nn2)cc(Cl)n1` [Compound 68], for which the EC50 in assay [1] is 25.4 nM; in assay [2] it was not below 19800 nM; on S1PR2 it was 111 nM; in the assay on HFL-1 cells [4], 153 nM. Also, the IC50 in the assay with HFL-1 cells [5] is 3460 nM.
In the same order, the values of `Cc1cc(CNC(=O)Nc2cc(C(F)(F)F)nc(OCCO)c2C)nnc1-c1cn(C)nc1C(F)(F)F` [Compound 73, 1-[2-(2-hydroxyethoxy)-3-methyl-6-(trifluoromethyl)-4-pyridyl]-3-[[5-methyl-6-[1-methyl-3-(trifluoromethyl)pyrazol-4-yl]pyridazin-3-yl]methyl]urea] are 84 nM, not below 19800 nM, 160 nM, 51 nM and 256 nM.
For the molecule `CCOc1nc(C)cc(NC(=O)NCc2cc(C)c(-c3cn(C)nc3C(F)(F)F)nn2)c1C#N` [Compound 77, 1-(3-cyano-2-ethoxy-6-methyl-4-pyridyl)-3-[[5-methyl-6-[1-methyl-3-(trifluoromethyl)pyrazol-4-yl]pyridazin-3-yl]methyl]urea], the EC50 at S1PR2 worked out at 20000 nM; in the assay on HFL-1 cells [4], 2740 nM. For the same molecule, the IC50 in the assay on HFL-1 cells [5] turned out to be 29900 nM.
On to `CCOc1cc(NC(=O)NCc2cc(C)c(N3CC(F)(F)C3)nn2)cc(Cl)n1` [Compound 83, 1-(2-Chloro-6-ethoxy-pyridin-4-yl)-3-[6-(3,3-difluoro-azetidin-1-yl)-5-methyl-pyridazin-3-ylmethyl]-urea], for which the EC50 in assay [1] came out at 11 nM; on S1PR2, 160 nM; in the assay with HFL-1 cells [4], 66 nM. Besides, in the assay on HFL-1 cells [5], the IC50 was found to be 30000 nM.
The corresponding values for `CCOc1ncc(NC(=O)NCc2cc(C)c(N3CC(C)OC(C)C3)nn2)cc1C(F)(F)F` (stereo not drawn) [Compound 85, 1-[[6-(2,6-dimethyl-morpholin-4-yl)-5-methyl-pyridazin-3-yl]methyl]-3-[6-ethoxy-5-(trifluoromethyl)-3-pyridyl]urca] are 487 nM, 3560 nM, 427 nM and 9950 nM.
As for `CCOc1cc(NC(=O)NCc2cc(C)c(N3C[C@@H](C)O[C@@H](C)C3)nn2)cc(C)n1` [Compound 93, 1-[[6-[(2R,6S)-2,6-dimethyl-morpholin-4-yl]-5-methyl-pyridazin-3-yl]methyl]-3-(2-ethoxy-6-methyl-4-pyridyl)urca], the EC50 in assay [1] worked out at 1050 nM; in assay [3], 6610 nM; at S1PR2, 2170 nM; with HFL-1 cells [4], 753 nM. In addition, in the assay with HFL-1 cells [5], the IC50 is 2200 nM.
The corresponding values for `CCOc1nc(C)cc(NC(=O)NCc2cc(C)c(N3C[C@@H](C)O[C@@H](C)C3)nn2)c1Cl` [Compound 94, 1-(3-chloro-2-ethoxy-6-methyl-4-pyridyl)-3-[[6-[(2R,6S)-2,6-dimethyl-morpholin-4-yl]-5-methyl-pyridazin-3-yl]methyl]urea] are 27 nM, 479 nM, 509 nM, 102 nM and 5950 nM.
On to `Cc1cc(CNC(=O)Nc2cc(Cl)nc(OCC(F)F)c2)nnc1N1CCOC(CN(C)C)C1` (stereo not drawn) [Compound 97, 1-[2-chloro-6-(2,2-difluoroethoxy)-4-pyridyl]-3-[[6-[2-[(dimethylamino)methyl]morpholin-4-yl]-5-methyl-pyridazin-3-yl]methyl]urea], for which the EC50 in assay [1] was determined as 81 nM; at S1PR2, 274 nM; in the assay on HFL-1 cells [4], 62 nM. Moreover, the IC50 in the assay on HFL-1 cells [5] turned out to be 1800 nM.
